Data as given in patent US20030153618A1, “Treatment and prevention of herpes simplex infections” (priority 1999, published 2003).
Where “and” joins values, the source holds several entries; their conditions need not be identical. Equal entries are not always repeated.

What was measured:
[1] = test system: Herpes simplex II virus; experiment: Back titration plaque assay: PFU counts at stated amounts of compound under test and arginine; type: cell-based, Herpes simplex II virus (BSC cells)
Experimental: The following experiments were conducted by back titration: Herpes simplex II virus from laboratory stocks was used. BSC cells were grown to confluence in Eagles medium with 15% fetal calf serum, 150 units per milliliter of penicillin and 100 micrograms per milliliter of streptomycin. The cultures were inoculated with 500 PFU of HS II. The virons were allowed to absorb for one hour at 25° C. The tissue cultures were then washed three times with sterile PBS to remove excess media and non-absorbed virons. The cells were then incubated at 37° C. until four-plus cytopathic effects were observed. The cells were then disrupted by slow freeze-thaw two times. The suspension was then clarified by slow speed centrifugation at 4° C. The supemanant suspension was then added to confluent BSC cultures. After one hour absorption, the cells were washed with PBS twice. The cells were overlaid in defined reagent (in triplicate) Eagles media in noble agar. The cells were then incubated at 37° C. until the plaques were easily counted, usually 40 t 72 hours. the cells were then washed two times with PBS and then fixed with 10% H2CO and a 2% sodium acetate. The cells were then stained in 0.1% crystal violet in ethanol. In the tables which follow the concentration of the compound to be tested, in micrograms per milliliter, is listed across the top of the table and the concentration of arginine in micrograms per milliliter is listed down the left side of the table, the count of plaque-forming units being shown in the matrix.

[2] = test system: HSV, Type II; experiment: Direct plaque-forming unit (PFU) count in BSC cells in defined media with set lysine (or derivative):arginine ratio; type: cell-based; settings: for Plaque Forming Unit Count, Average: average of experiments 1-6
Experimental: Absorbed virons were absorbed in susceptible cells in chemically defined media and the number of plaques made were counted. (See Davis, B. D., et al., Microbiology, 2nd Ed., Harper & Row, 1973, Part V, and sources cited therein for procedural details and discussion of the plaque method.)
The cell line chosen was green monkey kidney cells (BSC) that have been passed greater than 41 times. […] The virons were added to a confluent lawn of BSC cells and allowed to absorb at 25° C. for one hour. The unabsorbed virons and the media were removed by washing three times in PBS. […] The control media contained a lysine/arginine ratio of 1:1. The plaques were counted when easily readable. Flasks are done in triplicate.

NCCCCCC(N)C(=O)O (stereo not shown) [drawing 17]
P.F.U. Count ([1]; compound 10 μg/ml, arginine 0 μg/ml): 0
P.F.U. Count ([1]; compound 10 μg/ml, arginine 2.5 μg/ml): 0
P.F.U. Count ([1]; compound 10 μg/ml, arginine 5.0 μg/ml): 0
P.F.U. Count ([1]; compound 10 μg/ml, arginine 7.5 μg/ml): 0
P.F.U. Count ([1]; compound 10 μg/ml, arginine 10 μg/ml): 290
P.F.U. Count ([1]; compound 10 μg/ml, arginine 15 μg/ml): 799
P.F.U. Count ([1]; compound 10 μg/ml, arginine 20 μg/ml): 2.8 × 10^5
P.F.U. Count ([1]; compound 10 μg/ml, arginine 25 μg/ml): 2.8 × 10^5
P.F.U. Count ([1]; compound 25 μg/ml, arginine 0 μg/ml): 0
P.F.U. Count ([1]; compound 25 μg/ml, arginine 2.5 μg/ml): 0
P.F.U. Count ([1]; compound 25 μg/ml, arginine 5.0 μg/ml): 0
P.F.U. Count ([1]; compound 25 μg/ml, arginine 7.5 μg/ml): 0
P.F.U. Count ([1]; compound 25 μg/ml, arginine 10 μg/ml): 3.7 × 10^3
P.F.U. Count ([1]; compound 25 μg/ml, arginine 15 μg/ml): 4.2 × 10^3
P.F.U. Count ([1]; compound 25 μg/ml, arginine 20 μg/ml): 2.6 × 10^5
P.F.U. Count ([1]; compound 25 μg/ml, arginine 25 μg/ml): 4 × 10^5
P.F.U. Count ([1]; compound 50 μg/ml, arginine 0 μg/ml): 0
P.F.U. Count ([1]; compound 50 μg/ml, arginine 2.5 μg/ml): 0
P.F.U. Count ([1]; compound 50 μg/ml, arginine 5.0 μg/ml): 0
P.F.U. Count ([1]; compound 50 μg/ml, arginine 7.5 μg/ml): 0
P.F.U. Count ([1]; compound 50 μg/ml, arginine 10 μg/ml): 79
P.F.U. Count ([1]; compound 50 μg/ml, arginine 15 μg/ml): 276
P.F.U. Count ([1]; compound 50 μg/ml, arginine 20 μg/ml): 6.6 × 10^4
P.F.U. Count ([1]; compound 50 μg/ml, arginine 25 μg/ml): 3.6 × 10^4
P.F.U. Count ([1]; compound 100 μg/ml, arginine 0 μg/ml): 0
P.F.U. Count ([1]; compound 100 μg/ml, arginine 2.5 μg/ml): 0
P.F.U. Count ([1]; compound 100 μg/ml, arginine 5.0 μg/ml): 0
P.F.U. Count ([1]; compound 100 μg/ml, arginine 7.5 μg/ml): 0
P.F.U. Count ([1]; compound 100 μg/ml, arginine 10 μg/ml): 0
P.F.U. Count ([1]; compound 100 μg/ml, arginine 15 μg/ml): 0
P.F.U. Count ([1]; compound 100 μg/ml, arginine 20 μg/ml): 3.2 × 10^3
P.F.U. Count ([1]; compound 100 μg/ml, arginine 25 μg/ml): 6.6 × 10^3
P.F.U. Count ([1]; compound 200 μg/ml, arginine 0 μg/ml): 0
P.F.U. Count ([1]; compound 200 μg/ml, arginine 2.5 μg/ml): 0
P.F.U. Count ([1]; compound 200 μg/ml, arginine 5.0 μg/ml): 0
P.F.U. Count ([1]; compound 200 μg/ml, arginine 7.5 μg/ml): 0
P.F.U. Count ([1]; compound 200 μg/ml, arginine 10 μg/ml): 0
P.F.U. Count ([1]; compound 200 μg/ml, arginine 15 μg/ml): 0
P.F.U. Count ([1]; compound 200 μg/ml, arginine 20 μg/ml): 68
P.F.U. Count ([1]; compound 200 μg/ml, arginine 25 μg/ml): 654
P.F.U. Count ([1]; compound 300 μg/ml, arginine 0 μg/ml): 0
P.F.U. Count ([1]; compound 300 μg/ml, arginine 2.5 μg/ml): 0
P.F.U. Count ([1]; compound 300 μg/ml, arginine 5.0 μg/ml): 0
P.F.U. Count ([1]; compound 300 μg/ml, arginine 7.5 μg/ml): 0
P.F.U. Count ([1]; compound 300 μg/ml, arginine 10 μg/ml): 0
P.F.U. Count ([1]; compound 300 μg/ml, arginine 15 μg/ml): 0
P.F.U. Count ([1]; compound 300 μg/ml, arginine 20 μg/ml): 0
P.F.U. Count ([1]; compound 300 μg/ml, arginine 25 μg/ml): 0
P.F.U. Count ([1]; compound 400 μg/ml, arginine 0 μg/ml): 0
P.F.U. Count ([1]; compound 400 μg/ml, arginine 2.5 μg/ml): 0
P.F.U. Count ([1]; compound 400 μg/ml, arginine 5.0 μg/ml): 0
P.F.U. Count ([1]; compound 400 μg/ml, arginine 7.5 μg/ml): 0
P.F.U. Count ([1]; compound 400 μg/ml, arginine 10 μg/ml): 0
P.F.U. Count ([1]; compound 400 μg/ml, arginine 15 μg/ml): 0
P.F.U. Count ([1]; compound 400 μg/ml, arginine 20 μg/ml): 0
P.F.U. Count ([1]; compound 400 μg/ml, arginine 25 μg/ml): 0
P.F.U. Count ([1]; compound 500 μg/ml, arginine 0 μg/ml): 0
P.F.U. Count ([1]; compound 500 μg/ml, arginine 2.5 μg/ml): 0
P.F.U. Count ([1]; compound 500 μg/ml, arginine 5.0 μg/ml): 0
P.F.U. Count ([1]; compound 500 μg/ml, arginine 7.5 μg/ml): 0
P.F.U. Count ([1]; compound 500 μg/ml, arginine 10 μg/ml): 0
P.F.U. Count ([1]; compound 500 μg/ml, arginine 15 μg/ml): 0
P.F.U. Count ([1]; compound 500 μg/ml, arginine 20 μg/ml): 0
P.F.U. Count ([1]; compound 500 μg/ml, arginine 25 μg/ml): 0

NCCCC[C@H](N)C(=O)O [Lysine, lysine, reference compound]
Plaque Forming Unit Count, Average ([2]; Lysine:Arginine Ratio 1:1 (control media)): 738
Plaque Forming Unit Count ([2]; Lysine:Arginine Ratio 1:1 (control media), single experiment): 814 and 594 and 631 and 621 and 936 and 781
Plaque Forming Unit Count, Average ([2]; Lysine:Arginine Ratio 500:1): 12
